Measured values from patent US20070248996A1, “Modulators of beta-amyloid peptide aggregation comprising D-amino acids” (Paraecis Pharmaceuticals, Inc., priority 1995, published 2007).

How the values were obtained:
Aβ1-40 = Aβ1-40 (Homo sapiens, UniProt P05067); assay type: biochemical; conditions: Table VIII; 5 μM test compound
Excerpt: The nucleation assay is employed to determine the ability of test compounds to alter (e.g. inhibit) the early events in formation of β-AP fibers from monomeric β-AP. Characteristic of a nucleated polymerization mechanism, a lag time is observed prior to nucleation, after which the peptide rapidly forms fibers as reflected in a linear rise in turbidity. The time delay before polymerization of β-AP monomer can be quantified as well as the extent of formation of insoluble fiber by light scattering (turbidity). Polymerization reaches equilibrium when the maximum turbidity reaches a plateau The turbidity of a solution of natural β-AP in the absence or presence of various concentrations of a β-amyloid modulator compound is determined by measuring the apparent absorbance of the solution at 405 nm (A405 nm) over time. The threshold of sensitivity for the measurement of turbidity is in the range of 15-20 μM β-AP. […] This assay can be performed using stirring or shaking to accelerate polymerization, thereby increasing the speed of the assay. Moreover the assay can be adapted to a 96-well plate format to screen multiple compounds.
HFIP-solubilized peptide is sonicated in a waterbath sonicator for 5 min at highest setting, then evaporated to dryness under a stream of argon. The peptide film is resuspended in anhydrous dimethylsulfoxide (DMSO) at a concentration of 6.9 mg/ml (25× concentration), sonicated for 5 min as before, then filtered through a 0.2 micron nylon syringe filter (VWR cat. No.28196-050). Test compounds are dissolved in DMSO at a 100× concentration. […] Ten microliters of the mixture is then added to the bottom of a well of a Corning Costar ultra low binding 96-well plate (Coming Costar, Cambridge Mass.; cat. No. 2500). Ninety microliters of water is added to the well, the plate is shaken on a rotary shaken at a constant speed at room temperature for 30 seconds, an additional 100 μl of 2× PTL buffer (20 mM NaH2PO4, 300 mM NaCl, pH 7.4) is added to the well, the plate is reshaken for 30 seconds and a baseline (t=0) turbidity reading is taken by measuring the apparent absorbance at 405 nm using a Bio-Rad Model 450 Microplate Reader. The plate is then returned to the shaker and shaken continuously for 5 hours. Turbidity readings are taken at 15 minute intervals.
β-amyloid aggregation in the absence of any modulators results in enhanced turbidity of the natural β-AP solution (i.e., an increase in the apparent absorbance at 405 nm over time). […]

[1] = Brain uptake of tritium-labelled PPI-558 after subcutaneous injection; conditions: male rats, single subcutaneous injection 4.6 mg/kg, 2 hours (FIG. 4)
Protocol: Male Sprague-Dawley rats (259-280 g) received a single subcutaneous injection in the nape of the neck (4.6 mg/kg at 1 ml/kg=4.6 mg/ml in 100% Sesame Oil). At various time points post administration (2, 8 and 24 hours; n=4/time point), the animlas were anesthetized. Trunk blood was taken to determine plasma levels of the parent compound and the left side of the brain was perfused with 1 ml of saline over 30 seconds via the left sommon carotid artery. The brain was rapidly removed and the left forebrain (perfused) was subjected to capillary depletion.

[2] = Safety profile for PPI-558, daily subcutaneous injection for 14 days; conditions: female rats, 3 and 30 mg/kg s.c. daily for 14 days
Protocol: On day 15, animals were sacrificed 1 hour post administration.

[3] = Modulator compound stability in cerebrospinal fluid; conditions: 75% Rhesus monkey CSF, 37° C., 24 hours, HPLC; compared with PPI-368 (FIG. 1)
Protocol: The stability of a modulator compound in cerebrospinal fluid (CSF) can be assayed in an in vitro assay as follows. […] All sample handling is carried out in a laminar flow hood and test solutions are maintained at 37° C. during the assay. […] Samples (at the 0 time point and the 24 hour time point) are analyzed at room temperature using reverse-phase HPLC. A microbore column is used to maximize sensitivity. The parameters for analytical HPLC are as follows:
Chromatographic analysis is performed using a Hewlett Packard 1090 series II HPLC. The column used for separation is a C4, 5 μm, 1×250 mm (Vydac #214TP51). The flow rate is 50 μL/min and the elution profile of the test compounds is monitored at 214, 230, 260 and 280 nm.

Sequence of Aβ1-40 (P05067 672-711): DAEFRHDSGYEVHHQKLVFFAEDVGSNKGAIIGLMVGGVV

Row | Compound | ΔLag 5 μM (Aβ1-40) | ratio of brain versus plasma levels [1] | overt toxicity [2] | stability in cerebrospinal fluid [3]
1 | 4-Hydroxybenzoyl-D-Leu-D-Val-D-Phe-D-Phe-D-Ala-NH2 [PPI-558] | 2.0 | almost twice | No overt toxicity was observed | –
2 | CC(C)C[C@@H](NC(=O)CC[C@@H](C)[C@H]1CC[C@H]2[C@@H]3[C@H](O)C[C@@H]4C[C@H](O)CC[C@]4(C)[C@H]3C[C@H](O)[C@]12C)C(=O)N[C@@H](C(=O)N[C@H](Cc1ccccc1)C(=O)N[C@H](Cc1ccccc1)C(=O)N[C@H](C)C(=O)O)C(C)C [PPI-433, cholyl-D-Leu-D-Val-D-Phe-D-Phe-D-Ala-OH] | – | – | – | significantly greater stability in CSF than the L-amino acid-based compound
